The record followed here is ChEMBL document CHEMBL6096631, “The application of PROTACs in immune-inflammation diseases” (Bioorg Med Chem, 2024).

SMILES strings stand for the structures.

Common to all, as to assay type: cell-based
Experiment [1] deals with Protein cereblon/Non-receptor tyrosine-protein kinase TYK2 (Homo sapiens, UniProt P29597+Q96SW2). In words: PROTAC activity at CRBN/TYK2 in HEL cells assessed as TYK2 degradation incubated for 24 hrs by Western blotting analysis.
In experiment [2] the target is T1, Protein cereblon/Tyrosine-protein kinase BTK (Homo sapiens, UniProt Q06187+Q96SW2). In words: PROTAC activity at CRBN/BTK in human Huh-7 cells assessed as protein degradation.
Target sequence in this assay (Q06187 whole entry): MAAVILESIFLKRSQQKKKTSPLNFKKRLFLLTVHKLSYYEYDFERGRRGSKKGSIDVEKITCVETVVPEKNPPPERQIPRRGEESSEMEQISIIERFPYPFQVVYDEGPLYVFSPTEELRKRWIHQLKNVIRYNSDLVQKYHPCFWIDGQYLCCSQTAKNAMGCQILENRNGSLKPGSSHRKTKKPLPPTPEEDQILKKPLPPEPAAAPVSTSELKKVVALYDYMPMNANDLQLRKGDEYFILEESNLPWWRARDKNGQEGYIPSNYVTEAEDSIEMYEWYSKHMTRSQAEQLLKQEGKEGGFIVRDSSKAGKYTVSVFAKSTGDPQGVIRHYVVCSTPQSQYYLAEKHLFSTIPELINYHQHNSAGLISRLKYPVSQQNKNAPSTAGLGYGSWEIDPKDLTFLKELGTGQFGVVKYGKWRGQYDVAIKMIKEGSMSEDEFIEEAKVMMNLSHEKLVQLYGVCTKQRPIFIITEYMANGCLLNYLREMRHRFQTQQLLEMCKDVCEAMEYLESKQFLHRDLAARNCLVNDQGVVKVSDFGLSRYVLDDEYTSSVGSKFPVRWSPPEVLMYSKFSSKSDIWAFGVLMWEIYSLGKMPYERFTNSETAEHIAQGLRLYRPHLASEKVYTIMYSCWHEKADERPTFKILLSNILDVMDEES
Target sequence in this assay (Q96SW2 whole entry): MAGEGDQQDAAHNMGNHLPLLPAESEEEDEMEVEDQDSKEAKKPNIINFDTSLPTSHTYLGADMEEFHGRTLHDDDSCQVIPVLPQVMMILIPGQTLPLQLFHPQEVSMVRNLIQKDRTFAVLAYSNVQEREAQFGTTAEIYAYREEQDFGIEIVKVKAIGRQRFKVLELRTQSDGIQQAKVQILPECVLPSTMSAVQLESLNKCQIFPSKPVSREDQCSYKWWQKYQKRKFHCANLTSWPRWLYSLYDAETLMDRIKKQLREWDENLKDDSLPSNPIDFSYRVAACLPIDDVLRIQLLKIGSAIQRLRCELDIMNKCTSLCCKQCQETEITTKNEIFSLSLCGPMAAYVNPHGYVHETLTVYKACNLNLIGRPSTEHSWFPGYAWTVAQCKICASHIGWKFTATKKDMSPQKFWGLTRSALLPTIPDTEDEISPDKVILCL
Experiment [3] can be described thus: PROTAC activity at VHL/human p38alpha in MDA-MB-231 cells assessed as p38alpha degradation.
Experiment [4] concerns the target T2, von Hippel-Lindau disease tumor suppressor/Receptor-interacting serine/threonine-protein kinase 2 (Homo sapiens, UniProt O43353+P40337). The experiment can be described thus: PROTAC activity at VHL/RIPK2 in human THP-1 cells assessed as RIPK2 degradation by measuring maximal efficacy at 10 nM measured after 16 hrs by Western blot analysis relative to control.
Target sequence in this assay (O43353 whole entry, looked up): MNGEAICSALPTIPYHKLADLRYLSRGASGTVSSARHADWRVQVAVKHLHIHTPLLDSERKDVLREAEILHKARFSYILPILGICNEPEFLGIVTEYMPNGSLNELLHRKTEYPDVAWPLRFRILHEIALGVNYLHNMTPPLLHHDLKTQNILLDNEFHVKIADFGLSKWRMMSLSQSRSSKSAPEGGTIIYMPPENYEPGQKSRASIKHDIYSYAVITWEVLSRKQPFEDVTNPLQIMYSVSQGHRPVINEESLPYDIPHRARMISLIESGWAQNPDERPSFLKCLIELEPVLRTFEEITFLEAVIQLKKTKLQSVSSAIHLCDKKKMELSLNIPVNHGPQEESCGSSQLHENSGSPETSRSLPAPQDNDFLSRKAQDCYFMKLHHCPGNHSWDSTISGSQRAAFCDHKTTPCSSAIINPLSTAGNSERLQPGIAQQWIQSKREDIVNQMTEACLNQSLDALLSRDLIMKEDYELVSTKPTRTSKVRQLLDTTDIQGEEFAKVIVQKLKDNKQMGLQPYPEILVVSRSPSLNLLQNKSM
Target sequence in this assay (P40337 whole entry, looked up): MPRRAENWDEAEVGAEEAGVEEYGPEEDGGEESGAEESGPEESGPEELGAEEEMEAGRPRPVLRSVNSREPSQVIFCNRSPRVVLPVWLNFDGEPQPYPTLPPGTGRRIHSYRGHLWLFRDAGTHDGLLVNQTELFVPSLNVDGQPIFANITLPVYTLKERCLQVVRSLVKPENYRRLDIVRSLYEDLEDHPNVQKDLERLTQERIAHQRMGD

The target of experiment [5] is T3, von Hippel-Lindau disease tumor suppressor/Mitogen-activated protein kinase 14 (Homo sapiens, UniProt Q16539+P40337). The experiment can be described thus: PROTAC activity at VHL/p38alpha in human THP-1 cells assessed as induction of protein degradation by measuring maximal efficacy at 10 uM incubated for 16 hrs by Western blot analysis relative to control.
Target sequence in this assay (P40337 whole entry partner): as the sequence (P40337 whole entry, looked up) above
Target sequence in this assay (Q16539 2-360 limits assumed): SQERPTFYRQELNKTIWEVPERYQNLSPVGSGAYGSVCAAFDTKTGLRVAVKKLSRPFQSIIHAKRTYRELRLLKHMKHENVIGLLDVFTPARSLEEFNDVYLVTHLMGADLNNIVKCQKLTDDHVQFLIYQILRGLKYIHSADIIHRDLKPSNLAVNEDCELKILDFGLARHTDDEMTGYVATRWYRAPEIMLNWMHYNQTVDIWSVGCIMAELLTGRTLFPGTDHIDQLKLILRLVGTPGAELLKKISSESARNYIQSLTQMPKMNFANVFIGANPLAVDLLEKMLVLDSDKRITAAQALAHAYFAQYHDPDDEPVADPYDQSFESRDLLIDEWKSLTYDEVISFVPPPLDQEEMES
The target of experiment [6] is T4, von Hippel-Lindau disease tumor suppressor/Interleukin-1 receptor-associated kinase 4 (Homo sapiens, UniProt Q9NWZ3+P40337). The experiment can be described thus: PROTAC activity at VHL E3 ligase/IRAK4 in human PBMC cells assessed as induction of degradation of IRAK4 incubated overnight by immunoblot analysis.
Target sequence in this assay (Q9NWZ3 whole entry): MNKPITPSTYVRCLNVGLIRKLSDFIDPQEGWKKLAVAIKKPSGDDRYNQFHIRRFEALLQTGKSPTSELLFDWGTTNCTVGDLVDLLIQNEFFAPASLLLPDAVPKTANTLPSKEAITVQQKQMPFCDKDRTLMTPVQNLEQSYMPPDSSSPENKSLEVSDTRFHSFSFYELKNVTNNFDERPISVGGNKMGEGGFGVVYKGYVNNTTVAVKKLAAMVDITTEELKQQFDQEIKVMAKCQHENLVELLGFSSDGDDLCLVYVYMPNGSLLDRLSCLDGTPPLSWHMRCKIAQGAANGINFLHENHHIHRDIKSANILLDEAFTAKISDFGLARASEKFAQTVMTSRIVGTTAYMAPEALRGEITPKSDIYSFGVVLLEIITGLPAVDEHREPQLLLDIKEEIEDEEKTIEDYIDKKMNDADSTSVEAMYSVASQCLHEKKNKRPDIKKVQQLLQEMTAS
Target sequence in this assay (P40337 whole entry): as the sequence (P40337 whole entry, looked up) above
Experiment [7] has as its target T5, Protein cereblon/Interleukin-1 receptor-associated kinase 4 (Homo sapiens, UniProt Q9NWZ3+Q96SW2). The experiment can be described thus: PROTAC activity at CRBN/IRAK4 in human PBMC cells assessed as induction of degradation measured after 24 hrs by Immuno-blotting analysis.
Target sequence in this assay (Q9NWZ3 whole entry): as the sequence (Q9NWZ3 whole entry) above
Target sequence in this assay (Q96SW2 whole entry): as the sequence (Q96SW2 whole entry) above
The target of experiment [8] is T1, Protein cereblon/Tyrosine-protein kinase BTK. In words: PROTAC activity at CRBN/BTK in human Ramos cells assessed as protein degradation.
Target sequence in this assay (Q06187 whole entry): as the sequence (Q06187 whole entry) above
Target sequence in this assay (Q96SW2 whole entry): as the sequence (Q96SW2 whole entry) above
Experiment [9] has the same target. The experiment can be described thus: PROTAC activity at CRBN/BTK in human Ramos cells assessed as induction of protein degradation by measuring maximal efficacy at 10 uM relative to control.
Experiment [10] has as its target T3, von Hippel-Lindau disease tumor suppressor/Mitogen-activated protein kinase 14. In words: PROTAC activity at VHL/p38alpha in human THP-1 cells assessed as MAPK degradation incubated for 16 hrs by Western blot analysis.
The target of experiment [11] is T4, von Hippel-Lindau disease tumor suppressor/Interleukin-1 receptor-associated kinase 4. The experiment can be described thus: PROTAC activity at VHL E3 ligase/IRAK4 in human PBMC cells assessed as induction of degradation of IRAK4 incubated for 16 hrs by immunoblot analysis relative to control.
Experiment [12] concerns the target T5, Protein cereblon/Interleukin-1 receptor-associated kinase 4. In words: PROTAC activity at CRBN/IRAK4 in human KARPAS-299 cells assessed as induction of IRAK4 degradation.
Target sequence in this assay (Q9NWZ3 whole entry): as the sequence (Q9NWZ3 whole entry) above
Target sequence in this assay (Q96SW2 whole entry): as the sequence (Q96SW2 whole entry) above
Experiment [13] deals with T2, von Hippel-Lindau disease tumor suppressor/Receptor-interacting serine/threonine-protein kinase 2. The experiment can be described thus: PROTAC activity at VHL/RIPK2 in human THP-1 cells assessed as RIPK2 degradation measured after 16 hrs by Western blot analysis.
Target sequence in this assay (O43353 whole entry): as the sequence (O43353 whole entry, looked up) above
Target sequence in this assay (P40337 whole entry): as the sequence (P40337 whole entry, looked up) above
Experiment [14] concerns the target T5, Protein cereblon/Interleukin-1 receptor-associated kinase 4. In words: PROTAC activity at CRBN/IRAK4 in human HEK293T cells assessed as induction of protein degradation by measuring maximal efficacy at 10 uM measured after 24 hrs by immunoblotting analysis relative to control.

Take `CNC(=O)c1cnc(Nc2ccc(C(=O)NCCCCCCCCCC(=O)N[C@H](C(=O)N3C[C@H](O)C[C@H]3C(=O)NCc3ccc(-c4scnc4C)cc3)C(C)(C)C)cn2)cc1Nc1cccc(-c2ncn(C)n2)c1OC`: in experiment [1], the DC50 was determined as 14 nM.

As for `COc1cc(C)c(Sc2cnc(NC(=O)c3ccc(N4CCN(CCCCCCCNC(=O)COc5cccc6c5C(=O)N(C5CCC(=O)NC5=O)C6=O)CC4)cc3)s2)cc1C(=O)N1CCN(C(C)=O)CC1` (centres undefined), the DC50 in experiment [2] came out at 17 nM.

For `Cc1ccc(C(=O)NCCCCc2cn(CCCC(=O)NCCCCCCc3cccc4c3CN(C3CCC(=O)NC3=O)C4=O)nn2)cc1-n1c(C)cc(OCc2ccc(F)cc2F)c(Br)c1=O` (centres undefined), the DC50 in experiment [3] amounted to 19.1 nM.

As for `CN[C@H](C)C(=O)N[C@@H](C(=O)N1C[C@H](NC(=O)c2cnc(N3CCN(CCCOc4cc5ncnc(Nc6n[nH]c(C)c6C)c5cc4S(=O)(=O)C(C)(C)C)CC3)cn2)C[C@@H]1C(=O)Nc1c(F)cccc1F)C(C)(C)C`, the Emax in experiment [4] turned out to be 90%.

Consider `COc1cc2c(Oc3ccc(NC(=O)C4(C(=O)Nc5ccc(F)cc5)CC4)cc3F)ccnc2cc1OCCCCOCCCCOCC(=O)N[C@H](C(=O)N1C[C@H](O)C[C@H]1C(=O)NCc1ccc(-c2scnc2C)cc1)C(C)(C)C`, for which the Emax in experiment [5] worked out at 97.4%.

Take `Cc1ncsc1-c1ccc(CNC(=O)[C@@H]2C[C@@H](O)CN2C(=O)[C@@H](NC(=O)COCCOCCOCCOCCOc2cc3nccc(Nc4ccc5scnc5c4)c3cc2S(=O)(=O)C(C)(C)C)C(C)(C)C)cc1`: the maximal response (Emax) in experiment [4] was 95%.

As to `O=C(/C=C/C(=O)Nc1ccc(NC(=O)c2ccc([N+](=O)[O-])o2)cc1)NCCCCCCNc1cccc2c1C(=O)N(C1CCC(=O)NC1=O)C2=O` (centres undefined), the DC50 in experiment [6] stood at 3.2 nM.

With `CC[C@@H]1[C@H](F)C(=O)N[C@@H]1COc1ncc(C#CCN2CCC3(CC2)CCN(c2ncc(C(=O)N[C@H](C(=O)N4C[C@H](O)C[C@H]4C(=O)NCc4ccc(-c5scnc5C)cc4)C(C)(C)C)cn2)CC3)c2cc(C(N)=O)c(OC)cc12`, the 50% degradation concentration (DC50) in [7] stood at 151 nM.

Consider `Nc1ncnc2c1c(-c1ccc(Oc3ccccc3)cc1)nn2C1CCN(C(=O)CN2CCN(CC3CN(c4ccc5c(c4)C(=O)N(C4CCC(=O)NC4=O)C5=O)C3)CC2)CC1` (centres undefined), for which the DC50 in experiment [8] turned out to be 3.18 nM. Moreover, in experiment [9], the maximum response (Emax) came to 99.9%.

As to `COc1cc2c(Oc3ccc(NC(=O)C4(C(=O)Nc5ccc(F)cc5)CC4)cc3F)ccnc2cc1OCCOCCOCCOc1cc(-c2scnc2C)ccc1CNC(=O)[C@@H]1C[C@@H](O)CN1C(=O)[C@H](C(C)C)N1Cc2ccccc2C1=O`, the Emax in experiment [5] stood at 99.4%. The DC50 in experiment [10] was 46.2 nM.

For `CCn1nc(C)cc1C(=O)Nc1nc2cc(C(=O)NCCCCCCCCC(=O)N[C@H](C(=O)N3C[C@H](O)C[C@H]3C(=O)NCc3ccc(-c4scnc4C)cc3)C(C)(C)C)cc(OC)c2n1C/C=C/Cn1c(NC(=O)c2cc(C)nn2CC)nc2cc(C(N)=O)cc(OCCCN3CCOCC3)c21`, the Emax in experiment [11] came to 91.7%. Besides, in [6], the DC50 was determined as 227 nM.

Regarding `Cc1ccc(C(=O)NCCCCc2cn(CCCC(=O)NCCCCNc3cccc4c3C(=O)N(C3CCC(=O)NC3=O)C4=O)nn2)cc1-n1c(C)cc(OCc2ccc(F)cc2F)c(Br)c1=O` (centres undefined), in experiment [3], the half-maximal degradation concentration (DC50) amounted to 48.9 nM.

Regarding `O=C1CCC(N2C(=O)c3cccc(N4CCN(C(=O)C5CCN(c6ccc(NC(=O)c7cnc(Oc8ccccc8)nc7)cc6)CC5)CC4)c3C2=O)C(=O)N1` (centres undefined), the 50% degradation concentration (DC50) in experiment [12] came out at 17.3 nM.

For the molecule `CN[C@@H](C)C(=O)N[C@H](C(=O)N1CCC[C@H]1c1nc(C(=O)c2ccc(F)cc2)cs1)C1CCN(C(=O)c2cnc(N3CCN(CCOc4cc5ncnc(Nc6n[nH]c(C)c6C)c5cc4S(=O)(=O)C(C)(C)C)CC3)nc2)CC1`, the DC50 in experiment [13] worked out at 9.4 nM. The Emax in experiment [4] was found to be 94.3%.

Regarding `CC(C)Nc1cc(-n2ccc3cc(C#N)cnc32)ncc1C(=O)N[C@H]1CC[C@H](C(=O)NCCOCCNC(=O)COc2cccc3c2C(=O)N(C2CCC(=O)NC2=O)C3=O)CC1` (some centres undefined), in [14], the Emax stood at 90%.
